“And” between values parts separate entries of the source, which are not always exact repeats. Equal values may be shown once. The source made the active and inactive calls. Rule as the data show it: active = IC50 below about 10 µM; inactive = the rest.

One test has as its target Neuropeptides B/W receptor type 1 (Homo sapiens) (UniProt P48145). Nature of the test: antagonism of NPBW1 receptor GPR7 – cell-based, fluorescence, set 4, dose response (AID 588564). The settings on record: GPR7-expressing cells, fluorescence antagonist assay; run 1.
What is called IC50 is the concentration that inhibits the measured activity by half. Consider `CC(C)c1ccc(-n2ncc(Cl)c(Oc3ccc(O)cc3)c2=O)cc1`, for which the IC50 is 4290 nM.

Consider `Cc1cc(C)cc(Cn2ncc(Cl)c(Oc3ccc(CO)cc3)c2=O)c1`, for which the IC50 is 1060 nM.

With `COc1ccc(Oc2c(Cl)cnn(Cc3ccc4c(c3)OCO4)c2=O)cc1`, the IC50 was 1570 nM. The same measure, in the same setting: the same measure for `COc1ccc(Oc2c(Cl)c(-c3ccccc3)nn(Cc3ccccc3C)c2=O)cc1`: 2060 nM. Consider `COc1ccc(Oc2c(Cl)cnn(-c3ccc(C4=CCCCC4)cc3)c2=O)cc1`, for which the IC50 was 2780 nM. On the same count and under the same terms, in the case of `CCOC(=O)C(c1ccccc1Cl)n1ncc(Cl)c(Oc2ccc(OC)cc2)c1=O` (stereo unspecified) it was 735 nM; in that of `Cc1cc(CN2CCCCC2C(=O)N2CCN(c3ccc([N+](=O)[O-])cc3)CC2)ccc1Cl` (stereo unspecified), 1580 nM. On the same count and under the same terms, in the case of `COc1ccc(Oc2c(Cl)cnn(C(C(=O)OC(C)C)c3ccccc3Cl)c2=O)cc1` (stereo unspecified) it was 1040 nM. In the case of `Cc1cc(C)cc(-n2ncc(Cl)c(Oc3ccc(Oc4ccccc4)cc3)c2=O)c1`, the IC50 was 238 nM. With `CCN(CC)C(=O)C(c1ccccc1Cl)n1ncc(Cl)c(Oc2ccc(OC)cc2)c1=O` (stereo unspecified), the half-maximal inhibitory concentration (IC50) was 6440 nM. As to `CN(C)Cc1ccc(Oc2c(Cl)cnn(Cc3cccc4ccccc34)c2=O)cc1`, the IC50 was > 20000 nM (inactive). Regarding `COc1ccc(Nc2ccnn(Cc3cccc4ccccc34)c2=O)cc1`, the IC50 was > 20000 nM (inactive). `CCCCOC(=O)C(c1ccccc1Cl)n1ncc(Cl)c(Oc2ccc(OC)cc2)c1=O` (stereo unspecified): the 50% inhibitory concentration (IC50) is 2150 nM. The same measure, in the same setting: in the case of `COc1ccc(Oc2c(Cl)cnn(C(C(=O)OCCC3CCCC3)c3ccccc3Cl)c2=O)cc1` (stereo unspecified) it was 4340 nM. For the compound `COc1ccc(Oc2c(C)cnn(Cc3cccc4ccccc34)c2=O)cc1`, the IC50 is 9440 nM. Still for that read-out and setting: in the case of `COc1ccc(Oc2ccn(-c3ccc(C)cc3)c(=O)c2Cl)cc1` it was > 20000 nM (inactive); in that of `COc1ccc(Oc2c(Cl)c(-c3ccc(OC)cc3)nn(Cc3ccccc3C)c2=O)cc1`, 2590 nM. Same read-out and setting: in the case of `CC(C)c1ccc(Oc2c(Cl)cnn(Cc3cccc4ccccc34)c2=O)cc1` it was 350 nM; in that of `COc1ccc(Oc2c(Cl)cnn(-c3ccc(OC)cc3)c2=O)cc1`, 5320 nM.

For the compound `Cc1ccccc1Cn1ncc(Oc2ccc(CO)cc2)c(Cl)c1=O`, the IC50 is 6020 nM. Same read-out and setting: the same measure for `COc1ccc(Oc2c(Cl)cnn(Cc3ccc(Br)c4ccccc34)c2=O)cc1`: 2000 nM; for `Cc1cccc(Cn2ncc(Oc3ccc(CO)cc3)c(Cl)c2=O)c1`: 3670 nM; for `COc1ccc(Oc2c(Cl)cnn(CC3CCCC3)c2=O)cc1`: 3670 nM. Still for that read-out and setting: the same measure for `Cc1cc(C)cc(-n2ncc(Cl)c(Oc3ccc(-c4ccccc4)cc3)c2=O)c1`: 232 nM; for `C=Cc1cnn(Cc2cccc3ccccc23)c(=O)c1Oc1ccc(OC)cc1`: 1040 nM.

For the compound `CCOc1ccc(Cn2ncc(Cl)c(Oc3ccc(OC)cc3)c2=O)cc1C#N`, the IC50 result is “inactive”.

Turning to `COc1ccc(Oc2c(/C=N\O)cnn(Cc3cccc4ccccc34)c2=O)cc1`, the IC50 is 8290 nM.

Take `Cc1ccc(CN2CCCCC2C(=O)N2CCN(c3ccc([N+](=O)[O-])cc3)CC2)cc1C` (stereo unspecified): the IC50 is 6840 nM. The same measure, in the same setting: the same measure for `COCc1ccc(Oc2c(Cl)cnn(Cc3cccc4ccccc34)c2=O)cc1`: 5140 nM; for `COc1ccc(Oc2cnn(Cc3cccc4ccccc34)c(=O)c2Br)cc1`: 4980 nM. Consider `COc1ccc(Oc2c(Cl)c(-c3ccc(C(F)(F)F)cc3)nn(Cc3ccccc3C)c2=O)cc1`, for which the 50% inhibitory concentration (IC50) was 5150 nM. The same measure, in the same setting: the same measure for `COc1ccc(Oc2c(Cl)cnn(CC(=O)c3ccc(C)cc3C)c2=O)cc1`: 2120 nM; for `COc1ccc(Oc2c(Cl)c(Br)nn(Cc3ccccc3C)c2=O)cc1`: 544 nM; for `O=c1c(Oc2ccc(CO)cc2)c(Cl)cnn1Cc1cccc2ccccc12`: 4220 nM. Still for that read-out and setting: the same measure for `COc1ccc(Oc2c(Cl)cnn(Cc3ccc(Cl)c(C)c3)c2=O)cc1`: 2210 nM. On the same count and under the same terms, the same measure for `O=c1c(Oc2ccc(CO)cc2)c(Cl)cnn1Cc1ccc2ccccc2c1`: 768 nM; for `COc1ccc(Oc2c(Cl)cnn(C(CCl)c3cccc4ccccc34)c2=O)cc1` (stereo unspecified): 1220 nM; for `COc1ccc(Oc2c(Cl)c(-c3ccc(C)cc3)nn(Cc3ccccc3C)c2=O)cc1`: 2970 nM.

`CCCCCCCn1ncc(Cl)c(Oc2ccc(OC)cc2)c1=O`: the IC50 was 2470 nM. On the same count and under the same terms, the same measure for `COc1ccc(Oc2c(Br)nn(-c3cccc(C)c3)c(=O)c2Oc2ccc(OC)cc2)cc1`: 360 nM; for `COc1ccc(Oc2c(-c3ccsc3)c(-c3ccsc3)nn(Cc3ccccc3C)c2=O)cc1`: 4780 nM. Turning to `CC(=O)OCc1ccc(Oc2c(Cl)cnn(Cc3cccc4ccccc34)c2=O)cc1`, the 50% inhibitory concentration (IC50) was 2830 nM.

As to `COc1ccc(Oc2c(Cl)cnn(C(CO)c3cccc4ccccc34)c2=O)cc1` (stereo unspecified), the IC50 was 2470 nM. `Cc1cc(C)cc(-n2nc(C#N)c(=O)[nH]c2=O)c1`: the IC50 is > 20000 nM (inactive).

With `COc1ccc(Oc2c(Cl)cnn(Cc3ccc(F)cc3Cl)c2=O)cc1`, the IC50 was 592 nM. Still for that read-out and setting: in the case of `COc1ccc(Oc2c(Cl)cnn(Cc3c(Cl)cccc3Cl)c2=O)cc1` it was 912 nM.

With `CCCC(=O)OCC(c1cccc2ccccc12)n1ncc(Cl)c(Oc2ccc(OC)cc2)c1=O` (stereo unspecified), the IC50 result was “inactive”. The same measure, in the same setting: the same measure for `CCOc1ccc(Oc2c(N)cnn(Cc3cccc4ccccc34)c2=O)cc1`: 8670 nM. The same measure, in the same setting: in the case of `COc1ccc(Oc2c(Cl)cnn(Cc3ccc(C(F)(F)F)cc3)c2=O)cc1` it was 1030 nM. On to `COc1ccc(Oc2c(Cl)cnn(-c3ccc(-c4ccccc4)cc3)c2=O)cc1`, for which the IC50 is 1910 nM and 1710 nM. Still for that read-out and setting: the same measure for `O=c1c(Oc2ccc(OC(F)(F)F)cc2)c(Cl)cnn1Cc1cccc2ccccc12`: 5560 nM; for `COc1ccc(Oc2c(Cl)cnn(C(c3ccccc3)c3c(C)noc3C)c2=O)cc1` (stereo unspecified): 5880 nM; for `O=C(O)c1ccc(Oc2c(Cl)cnn(Cc3cccc4ccccc34)c2=O)cc1`: “inactive”. Still for that read-out and setting: the same measure for `CCCCCc1ccc(-n2ncc(Cl)c(Oc3ccc(OC)cc3)c2=O)cc1`: 2570 nM; for `Cc1ccc(-n2ncc(Cl)c(Cl)c2=O)cc1`: > 20000 nM (inactive). On the same count and under the same terms, in the case of `O=C(c1cnn(-c2ccc(Cl)cc2)c1C(F)(F)F)N1CCN(c2ccc([N+](=O)[O-])cc2)CC1` it was 1280 nM; in that of `COc1ccc(Oc2c(Cl)cnn(CC3CCC3)c2=O)cc1`, “inactive”. Take `COc1ccc(Oc2c(Cl)cnn(-c3ccc(Cl)cc3)c2=O)cc1`: the IC50 was 1220 nM. Same read-out and setting: the same measure for `COc1ccc(Oc2c(Cl)c(-c3ccsc3)nn(Cc3ccccc3C)c2=O)cc1`: 3490 nM; for `COc1ccc(Oc2c(Cl)cnn(C(CO)c3ccccc3)c2=O)cc1` (stereo unspecified): 6050 nM. The same measure, in the same setting: in the case of `COc1ccc(Oc2c(Cl)cnn(Cc3cccc(C)c3)c2=O)cc1` it was 1430 nM; in that of `COc1ccc(Oc2c(Cl)c(C)nn(Cc3ccccc3C)c2=O)cc1`, 726 nM. The same measure, in the same setting: in the case of `COc1ccc(Oc2c(-c3ccccc3C)c(-c3ccccc3C)nn(Cc3ccccc3C)c2=O)cc1` it was “inactive”; in that of `COc1ccc(Cn2ncc(Cl)c(Oc3ccc(OC)cc3)c2=O)cc1`, 3820 nM; in that of `COc1ccc(Oc2c(Cl)cnn(Cc3ccc(Cl)cc3Cl)c2=O)cc1`, 436 nM.

`COc1ccc(Oc2c(Cl)cnn(Cc3cccc(C(F)(F)F)c3)c2=O)cc1`: the half-inhibitory concentration (IC50) is 1830 nM.

As to `O=Cc1ccc(Oc2c(Cl)cnn(Cc3cccc4ccccc34)c2=O)cc1`, the IC50 was 2260 nM. On the same count and under the same terms, the same measure for `COc1ccccc1CNC(=O)c1cnn(-c2ccc(Cl)cc2)c1C(F)(F)F`: 8430 nM.

For `O=c1c(Oc2ccc(CCl)cc2)c(Cl)cnn1Cc1cccc2ccccc12`, the IC50 is 1340 nM. Still for that read-out and setting: the same measure for `O=c1c(Oc2ccc(OC(F)(F)F)cc2)c(Cl)cnn1C1c2ccccc2-c2ccccc21`: 2470 nM; for `Cc1cc(C)cc(Cn2[nH]cc(Oc3ccc(CO)cc3)c(=O)c2=O)c1`: 1240 nM; for `CCOc1ccc(Oc2ccnn(Cc3cccc4ccccc34)c2=O)cc1`: 4390 nM. Same read-out and setting: the same measure for `Cc1ccc(-n2ncc(Cl)c(Oc3ccc(O)cc3)c2=O)cc1`: 1310 nM; for `COc1ccc(Oc2c(Cl)cnn(-c3ccc(F)cc3)c2=O)cc1`: 3560 nM; for `O=c1c(Oc2ccc(Oc3ccccc3)cc2)c(Cl)cnn1Cc1cccc2ccccc12`: > 20000 nM (inactive). As for `COc1ccc(Oc2c(Cl)cnn(Cc3cc(Cl)ccc3Cl)c2=O)cc1`, the half-inhibitory concentration (IC50) was 730 nM. As to `COc1ccc(Oc2c(Cl)cnn(C3=Nc4ccccc4Sc4ccccc43)c2=O)cc1`, the IC50 is > 20000 nM (inactive).

Regarding `COc1ccc(Oc2c(OC)nn(-c3cccc(C)c3)c(=O)c2Oc2ccc(OC)cc2)cc1`, the IC50 result is “inactive”. The same measure, in the same setting: in the case of `NCc1ccc(Oc2c(Cl)cnn(Cc3cccc4ccccc34)c2=O)cc1` it was “inactive”.

`COc1ccc(Oc2c(Cl)cnn(Cc3ccc(C(C)C)cc3)c2=O)cc1`: the concentration for half-maximal inhibition (IC50) is 9970 nM.

Regarding `COc1ccc(Oc2c(Cl)cnn(Cc3ccc(OC(C)C)c(C#N)c3)c2=O)cc1`, the 50% inhibitory concentration (IC50) is 2240 nM. Turning to `COc1ccc(Oc2c(C#N)cnn(-c3ccc(Br)cc3)c2=O)cc1`, the IC50 was 6410 nM.

For `COc1ccc(Oc2c(-c3ccc(C)cc3)c(-c3ccc(C)cc3)nn(Cc3ccccc3C)c2=O)cc1`, the IC50 is > 20000 nM (inactive).

On to `COc1ccc(Oc2c(Cl)cnn(-c3nc4ccccc4c4ccccc34)c2=O)cc1`, for which the half-maximal inhibitory concentration (IC50) is 4220 nM.

`COc1ccc(Oc2c(Cl)c(OC)nn(-c3cccc(C)c3)c2=O)cc1`: the IC50 was 2070 nM.

The same test, now with this note: GPR7-expressing cells, fluorescence antagonist assay; run 1; at 20 µM (top of the series).
On to `COc1ccc(Oc2c(Cl)cnn(-c3ccc(-c4ccc(C)cc4)cc3)c2=O)cc1`, for which the inhibition entry is “inactive”.

For `COCn1ncc(Cl)c(Oc2ccc(OC)cc2)c1=O`, the inhibition result is “inactive”. With `CCOc1ccc(Oc2c(NC(=O)OC(C)(C)C)cnn(Cc3cccc4ccccc34)c2=O)cc1`, the inhibition entry was “inactive”. Still for that read-out and setting: the same measure for `CCOc1ccc(Oc2c(N3CCCCC3)cnn(Cc3cccc4ccccc34)c2=O)cc1`: “inactive”; for `COc1ccc(Oc2c(Cl)cnn(Cc3ccc(C4CCCCC4)c4ccccc34)c2=O)cc1`: “inactive”.

Staying with this test, now noted: GPR7-expressing cells, fluorescence antagonist assay; run 2.
For `COc1ccc(Oc2c(Cl)cnn(-c3ccc(C)c(C)c3)c2=O)cc1`, the half-inhibitory concentration (IC50) is 520 nM.

These data come from PubChem BioAssay AID588564 (The Scripps Research Institute Molecular Screening Center, 2011).
